This is an account of results in patent US10660877B2 (BRISTOL-MYERS SQUIBB COMPANY, priority 2016, dated 2020).

For one test, the target named is human TLR7 (Homo sapiens (Human), UniProt Q9NYK1). Kind of test: TLR7 inhibition reporter assay (HEK-Blue cells, SEAP reporter, gardiquimod stimulation). The class given is cell-based. The settings on record: HEK-Blue cells overexpressing human TLR7, gardiquimod 7.5 μM. A general note: In a reporter assay the amount or activity of a reporter protein is the signal.
For another test, the target named is human TLR9 (Homo sapiens (Human), UniProt Q9NR96). Description: TLR9 inhibition reporter assay (HEK-Blue cells, SEAP reporter, ODN2006 stimulation).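 Also: compounds tested over 0.05 nM to 50 µM, 22 h incubation, inhibition taken as SEAP signal drop from agonist plus DMSO wells toward a known inhibitor control.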
In the next test the target is human TLR8 (Homo sapiens (Human), UniProt Q9NR97). Description: TLR8 inhibition reporter assay (HEK-Blue cells, SEAP reporter, R848 stimulation).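 Also: compounds tested from 0.05 nM to 50 µM, 22 h at 37 °C, SEAP measured with HEK-Blue Detection, inhibition relative to agonist plus DMSO versus a known inhibitor.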
[1] abbreviates: read-out: TLR9 IC50, HEK-Blue cells overexpressing human TLR9, ODN2006 5 nM.
Setting [2] is: read-out: TLR8 IC50, HEK-Blue cells overexpressing human TLR8, R848 15.9 μM.
Where [3] appears, read: TLR9 IC50, HEK-Blue cells overexpressing human TLR9, ODN2006 5 nM.
The mark [4] stands for this setting: TLR8 IC50, HEK-Blue cells overexpressing human TLR8, R848 15.9 μM.

The term IC50 denotes the concentration that gives 50% inhibition.

SMILES strings stand for the structures. Where two headings read alike, the source gives them in different places.

Chain of human TLR9 (Q9NR96 26-1032): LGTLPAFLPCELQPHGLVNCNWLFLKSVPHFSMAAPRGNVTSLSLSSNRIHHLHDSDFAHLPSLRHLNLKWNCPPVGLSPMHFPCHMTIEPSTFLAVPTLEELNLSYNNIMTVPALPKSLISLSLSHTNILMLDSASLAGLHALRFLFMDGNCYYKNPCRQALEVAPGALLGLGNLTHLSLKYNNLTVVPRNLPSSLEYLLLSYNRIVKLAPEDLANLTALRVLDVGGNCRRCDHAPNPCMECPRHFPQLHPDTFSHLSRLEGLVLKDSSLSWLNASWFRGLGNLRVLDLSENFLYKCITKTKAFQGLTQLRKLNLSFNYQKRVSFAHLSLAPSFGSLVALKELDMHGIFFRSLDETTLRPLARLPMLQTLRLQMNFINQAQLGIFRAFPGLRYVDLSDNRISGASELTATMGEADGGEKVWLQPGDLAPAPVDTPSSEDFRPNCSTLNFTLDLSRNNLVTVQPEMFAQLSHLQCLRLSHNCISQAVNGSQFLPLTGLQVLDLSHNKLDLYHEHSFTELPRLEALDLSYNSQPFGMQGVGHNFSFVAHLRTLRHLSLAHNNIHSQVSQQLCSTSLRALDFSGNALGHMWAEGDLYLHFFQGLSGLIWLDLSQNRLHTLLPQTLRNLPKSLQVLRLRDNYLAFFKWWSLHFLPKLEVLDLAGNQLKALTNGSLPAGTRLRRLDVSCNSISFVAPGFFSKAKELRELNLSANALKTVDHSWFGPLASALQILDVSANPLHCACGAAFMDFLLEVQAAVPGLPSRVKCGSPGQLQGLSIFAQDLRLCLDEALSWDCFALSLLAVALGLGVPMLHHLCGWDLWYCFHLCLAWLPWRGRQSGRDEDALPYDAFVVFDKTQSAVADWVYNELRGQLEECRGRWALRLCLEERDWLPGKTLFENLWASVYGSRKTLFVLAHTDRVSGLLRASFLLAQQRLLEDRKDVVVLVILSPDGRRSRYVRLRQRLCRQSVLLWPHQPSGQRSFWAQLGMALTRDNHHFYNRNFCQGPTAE
Chain of human TLR7 (Q9NYK1 27-1049): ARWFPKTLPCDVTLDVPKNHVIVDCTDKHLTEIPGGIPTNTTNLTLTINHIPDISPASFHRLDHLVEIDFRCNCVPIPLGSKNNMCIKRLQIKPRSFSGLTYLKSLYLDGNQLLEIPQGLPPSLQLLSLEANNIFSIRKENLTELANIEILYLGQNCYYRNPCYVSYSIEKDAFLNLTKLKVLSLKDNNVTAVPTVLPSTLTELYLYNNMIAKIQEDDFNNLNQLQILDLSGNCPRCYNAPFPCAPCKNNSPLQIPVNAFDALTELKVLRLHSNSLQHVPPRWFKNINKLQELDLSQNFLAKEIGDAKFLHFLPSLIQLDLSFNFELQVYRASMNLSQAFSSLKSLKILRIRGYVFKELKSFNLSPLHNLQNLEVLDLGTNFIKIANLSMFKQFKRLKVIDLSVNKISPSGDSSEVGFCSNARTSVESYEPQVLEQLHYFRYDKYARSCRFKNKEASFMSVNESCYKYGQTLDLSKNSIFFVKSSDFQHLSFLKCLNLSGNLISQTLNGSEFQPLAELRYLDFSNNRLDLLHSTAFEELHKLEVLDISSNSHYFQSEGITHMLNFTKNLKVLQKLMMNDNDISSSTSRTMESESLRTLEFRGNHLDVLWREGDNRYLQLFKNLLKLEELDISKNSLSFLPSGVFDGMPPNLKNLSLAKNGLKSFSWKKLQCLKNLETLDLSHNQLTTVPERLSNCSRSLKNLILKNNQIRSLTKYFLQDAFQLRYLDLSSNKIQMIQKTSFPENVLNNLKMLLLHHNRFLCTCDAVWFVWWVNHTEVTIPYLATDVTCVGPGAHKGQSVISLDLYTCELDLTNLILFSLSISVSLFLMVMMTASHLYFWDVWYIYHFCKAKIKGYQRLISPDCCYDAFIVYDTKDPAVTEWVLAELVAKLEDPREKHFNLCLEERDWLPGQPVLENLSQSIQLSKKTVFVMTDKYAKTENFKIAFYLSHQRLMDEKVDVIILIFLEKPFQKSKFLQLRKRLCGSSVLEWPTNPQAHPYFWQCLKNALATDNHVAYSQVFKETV
Chain of human TLR8 (Q9NR97 27-1041): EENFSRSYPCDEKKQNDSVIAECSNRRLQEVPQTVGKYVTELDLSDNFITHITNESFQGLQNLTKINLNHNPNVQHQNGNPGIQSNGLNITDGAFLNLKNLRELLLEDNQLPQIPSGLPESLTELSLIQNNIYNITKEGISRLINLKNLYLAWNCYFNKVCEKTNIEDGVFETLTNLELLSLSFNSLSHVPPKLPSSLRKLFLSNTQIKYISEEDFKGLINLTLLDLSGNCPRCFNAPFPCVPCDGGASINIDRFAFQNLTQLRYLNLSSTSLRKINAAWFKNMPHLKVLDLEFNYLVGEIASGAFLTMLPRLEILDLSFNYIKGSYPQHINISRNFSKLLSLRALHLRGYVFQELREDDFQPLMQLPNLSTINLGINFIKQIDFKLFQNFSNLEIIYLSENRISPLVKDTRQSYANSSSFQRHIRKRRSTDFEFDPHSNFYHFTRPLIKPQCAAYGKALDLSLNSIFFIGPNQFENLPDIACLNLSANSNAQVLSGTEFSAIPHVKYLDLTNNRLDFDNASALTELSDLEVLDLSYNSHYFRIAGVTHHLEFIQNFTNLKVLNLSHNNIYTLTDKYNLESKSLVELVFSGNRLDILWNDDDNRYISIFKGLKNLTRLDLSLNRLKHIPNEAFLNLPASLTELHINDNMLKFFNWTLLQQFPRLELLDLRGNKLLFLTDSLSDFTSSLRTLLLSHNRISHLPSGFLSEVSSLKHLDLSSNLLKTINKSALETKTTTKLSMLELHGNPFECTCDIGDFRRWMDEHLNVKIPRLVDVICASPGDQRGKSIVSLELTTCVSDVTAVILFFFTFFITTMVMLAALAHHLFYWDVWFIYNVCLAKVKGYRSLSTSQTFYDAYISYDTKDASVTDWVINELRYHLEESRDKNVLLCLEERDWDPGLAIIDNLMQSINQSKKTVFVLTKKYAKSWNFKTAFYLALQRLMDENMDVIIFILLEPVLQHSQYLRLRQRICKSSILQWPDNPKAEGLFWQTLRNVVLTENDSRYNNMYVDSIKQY

Regarding `Cc1cc(-c2[nH]c3ccc(C4CCN(Cc5ccn[nH]5)CC4)cc3c2C(C)C)c(C)cn1` [Example 681, 5-(1-((1H-pyrazol-5-yl)methyl)piperidin-4-yl)-2-(2,5-dimethylpyridin-4-yl)-3-isopropyl-1H-indole], the values for the IC50 at human TLR7, at human TLR9 (setting [1]) and at human TLR8 (setting [2]) were 15.5 nM, 1530 nM and 0.6 nM, respectively.

On to `Cc1cc(-c2[nH]c3ccc(C4CCN(CC(=O)NC5CCOC5)CC4)cc3c2C(C)C)cc(C)n1` (stereo not drawn) [Example 282, 2-(4-(2-(2,6-dimethylpyridin-4-yl)-3-isopropyl-1H-indol-5-yl)piperidin-1-yl)-N-(tetrahydrofuran-3-yl)acetamide], for which the IC50 at human TLR7 is 3.7 nM; at human TLR9 (setting [1]), 2700 nM; on human TLR8 (setting [2]), 9 nM.

`Cc1cc(-c2[nH]c3ccc(C4CCN(C(=O)CN5CCCCS5(=O)=O)CC4)cc3c2C(C)C)cc(C)n1` [Example 167, 1-(4-(2-(2,6-dimethylpyridin-4-yl)-3-isopropyl-1H-indol-5-yl)piperidin-1-yl)-2-(1,1-dioxido-1,2-thiazinan-2-yl)ethan-1-one]: the IC50 stood at 5.9 nM on human TLR7, 250 nM on human TLR9 (setting [1]) and 50.9 nM on human TLR8 (setting [2]).

`CC(C)c1c(-c2ccnc(F)c2)[nH]c2ccc(C3CCN(C4CCN(C)CC4)CC3)cc12` [Example 523, 2-(2-fluoropyridin-4-yl)-3-isopropyl-5-(1′-methyl-[1,4′-bipiperidin]-4-yl)-1H-indole]: the IC50 stood at 25.8 nM on human TLR7, 503 nM on human TLR9 (setting [1]) and 25.5 nM on human TLR8 (setting [2]).

Regarding `CNCCN1CCC(c2ccc3[nH]c(-c4ccnc(C#N)c4)c(C)c3c2)CC1` [Example 755, 4-(3-methyl-5-(1-(2-(methylamino)ethyl)piperidin-4-yl)-1H-indol-2-yl)picolinonitrile], the IC50 on human TLR7 turned out to be 2650 nM; on human TLR9 (setting [1]), 599 nM; on human TLR8 (setting [2]) it was 86.6 nM.

Take `CCc1c(-c2cc(F)nc(F)c2)[nH]c2ccc(C3CCN(C4CCN(CC(C)C)CC4)CC3)cc12` [Example 761, 2-(2,6-difluoropyridin-4-yl)-3-ethyl-5-(1′-isobutyl-[1,4′-bipiperidin]-4-yl)-1H-indole]: the IC50 at human TLR7 came out at 4260 nM; on human TLR9 (setting [1]), 800 nM; on human TLR8 (setting [2]) it was 375 nM.

Take `Cc1cc(-c2[nH]c3ccc(C4CCN(CC5CCN(C(C)C)C5)CC4)cc3c2C(C)C)cc(C)n1` (stereo not drawn) [Example 465, 2-(2,6-dimethylpyridin-4-yl)-3-isopropyl-5-(1-((1-isopropylpyrrolidin-3-yl)methyl)piperidin-4-yl)-1H-indole]: the IC50 against human TLR7 turned out to be 7 nM; at human TLR9 (setting [1]), 147 nM; on human TLR8 (setting [2]) it was 4.7 nM.

Turning to `Cc1cc(-c2[nH]c3ccc(C4CCN(C(=O)CN5CCOCC5=O)CC4)cc3c2C(C)C)cc(C)n1` [Example 161, 4-(2-(4-(2-(2,6-dimethylpyridin-4-yl)-3-isopropyl-1H-indol-5-yl)piperidin-1-yl)-2-oxoethyl)morpholin-3-one], the IC50 against human TLR7 was 7.9 nM; on human TLR9 (setting [1]), more than 50000 nM; at human TLR8 (setting [2]) it was 49.4 nM.

With `Cc1cc(-c2[nH]c3ccc(C4CCN(C(=O)CN(CCO)Cc5ccc(F)cc5)CC4)cc3c2C(C)C)cc(C)n1` [Example 407, 1-(4-(2-(2,6-dimethylpyridin-4-yl)-3-isopropyl-1H-indol-5-yl)piperidin-1-yl)-2-((4-fluorobenzyl)(2-hydroxyethyl)amino)ethan-1-one], the IC50 was found to be 7 nM on human TLR7, 495 nM at human TLR9 (setting [1]) and 71 nM on human TLR8 (setting [2]).

Turning to `CNC(=O)C(=O)N1CCC(c2ccc3[nH]c(-c4cc(C)nc(C)c4)c(C(C)C)c3c2)CC1` [Example 204, 2-(4-(2-(2,6-dimethylpyridin-4-yl)-3-isopropyl-1H-indol-5-yl)piperidin-1-yl)-N-methyl-2-oxoacetamide], the IC50 at human TLR7 turned out to be 5.7 nM; on human TLR9 (setting [1]), 17200 nM; on human TLR8 (setting [2]) it was 62.9 nM.

For `CCC(C)NCC(=O)N1CCC(c2ccc3[nH]c(-c4cc(C)nc(C)c4)c(C(C)C)c3c2)CC1` (stereo not drawn) [Example 392, 2-(sec-butylamino)-1-(4-(2-(2,6-dimethylpyridin-4-yl)-3-isopropyl-1H-indol-5-yl)piperidin-1-yl)ethan-1-one], the IC50 came out at 3.2 nM on human TLR7, 253 nM at human TLR9 (setting [1]) and 10.4 nM at human TLR8 (setting [2]).

As for `Cc1cc(-c2[nH]c3ccc(C4CCN(C(=O)CNCC(C)O)CC4)cc3c2C(C)C)cc(C)n1` (stereo not drawn) [Example 367, 1-(4-(2-(2,6-dimethylpyridin-4-yl)-3-isopropyl-1H-indol-5-yl)piperidin-1-yl)-2-((2-hydroxypropyl)amino)ethan-1-one], the IC50 at human TLR7 came out at 6.5 nM; at human TLR9 (setting [3]), 1890 nM; at human TLR8 (setting [4]), 54.1 nM.

Take `Cc1cc(-c2[nH]c3ccc(C4CCNCC4O)cc3c2C(C)C)cc(C)n1` (single isomer, unassigned) [Example 488A, 4-(2-(2,6-dimethylpyridin-4-yl)-3-isopropyl-1H-indol-5-yl)piperidin-3-ol]: the IC50 on human TLR7 was 2.7 nM; against human TLR9 (setting [3]), 240 nM; at human TLR8 (setting [4]) it was 21 nM.

As to `Cc1cc(-c2[nH]c3ccc(C4CCNCC4)cc3c2CC2CC2)ccn1` [Example 89, 3-(cyclopropylmethyl)-2-(2-methylpyridin-4-yl)-5-(piperidin-4-yl)-1H-indole], the IC50 on human TLR7 came out at 13.6 nM; at human TLR9 (setting [1]), 548 nM; on human TLR8 (setting [2]) it was 10.7 nM.

Take `Cc1cc(-c2[nH]c3ccc(C4CCN(C(=O)C5(C#N)CC5)CC4)cc3c2C(C)C)ccn1` [Example 611, 1-(4-(3-isopropyl-2-(2-methylpyridin-4-yl)-1H-indol-5-yl)piperidine-1-carbonyl)cyclopropane-1-carbonitrile]: the values for the IC50 against human TLR7, on human TLR9 (setting [1]) and on human TLR8 (setting [2]) were 19.7 nM, 9450 nM and 108 nM, respectively.

For the compound `Cc1cc(-c2[nH]c3ccc(C4CCN(C(=O)CN(C)CCF)CC4)cc3c2C(C)C)cc(C)n1` [Example 421, 1-(4-(2-(2,6-dimethylpyridin-4-yl)-3-isopropyl-1H-indol-5-yl)piperidin-1-yl)-2-((2-fluoroethyl)(methyl)amino)ethan-1-one], the IC50 came out at 5.4 nM on human TLR7, 656 nM on human TLR9 (setting [1]) and 25.9 nM at human TLR8 (setting [2]).

`Cc1cc(-c2[nH]c3ccc(C4CCN(CC(=O)NC5CC5)CC4)cc3c2C(C)C)cc(C)n1` [Example 212, N-cyclopropyl-2-(4-(2-(2,6-dimethylpyridin-4-yl)-3-isopropyl-1H-indol-5-yl)piperidin-1-yl)acetamide]: the IC50 came to 3.1 nM at human TLR7, 648 nM on human TLR9 (setting [1]) and 6.5 nM at human TLR8 (setting [2]).

As to `Cc1cc(-c2[nH]c3ccc(C4CCN(C(=O)CN5CC6CCC(C5)O6)CC4)cc3c2C(C)C)cc(C)n1` [Example 389, 2-(8-oxa-3-azabicyclo[3.2.1]octan-3-yl)-1-(4-(2-(2,6-dimethylpyridin-4-yl)-3-isopropyl-1H-indol-5-yl)piperidin-1-yl)ethan-1-one], the half-inhibitory concentration (IC50) against human TLR7 amounted to 10.3 nM; on human TLR9 (setting [1]), 880 nM; on human TLR8 (setting [2]), 31.3 nM.

In the case of `Cc1cc(-c2[nH]c3ccc(C4CCN(C(=O)CN5CCCC(F)(F)C5)CC4)cc3c2C(C)C)cc(C)n1` [Example 390, 2-(3,3-difluoropiperidin-1-yl)-1-(4-(2-(2,6-dimethylpyridin-4-yl)-3-isopropyl-1H-indol-5-yl)piperidin-1-yl)ethan-1-one], the IC50 against human TLR7 was found to be 17.9 nM; at human TLR9 (setting [1]) it was 25800 nM; at human TLR8 (setting [2]), 191 nM.

With `Cc1cc(-c2[nH]c3ccc(C4CCN(C)CC4)cc3c2C(C)C)c(C)cn1` [Example 636, 2-(2,5-dimethylpyridin-4-yl)-3-isopropyl-5-(1-methylpiperidin-4-yl)-1H-indole], the IC50 against human TLR7 was 9.8 nM; at human TLR9 (setting [1]) it was 1370 nM; at human TLR8 (setting [2]) it was 1 nM.

As for `CCc1c(-c2ccnc(C)c2)[nH]c2ccc(C3CCN(C(=O)c4ccnc(F)c4)CC3)cc12` [Example 592, (4-(3-ethyl-2-(2-methylpyridin-4-yl)-1H-indol-5-yl)piperidin-1-yl)(2-fluoropyridin-4-yl)methanone], the IC50 on human TLR7 turned out to be 276 nM; at human TLR9 (setting [1]) it was 17100 nM; at human TLR8 (setting [2]), 235 nM.

In the case of `Cc1cc(-c2[nH]c3ccc(C4CCN(C(=O)CN(C)CC(F)F)CC4)cc3c2C(C)C)cc(C)n1` [Example 422, 2-((2,2-difluoroethyl)(methyl)amino)-1-(4-(2-(2,6-dimethylpyridin-4-yl)-3-isopropyl-1H-indol-5-yl)piperidin-1-yl) ethan-1-one], the IC50 came out at 5.5 nM against human TLR7, 41300 nM on human TLR9 (setting [1]) and 73.4 nM on human TLR8 (setting [2]).

`Cc1cc(-c2[nH]c3ccc(C4CCN(C(=O)CNCC(C)C)CC4)cc3c2C(C)C)cc(C)n1` [Example 338, 1-(4-(2-(2,6-dimethylpyridin-4-yl)-3-isopropyl-1H-indol-5-yl)piperidin-1-yl)-2-(isobutylamino)ethan-1-one]: the IC50 on human TLR7 was 5.8 nM; at human TLR9 (setting [1]) it was 553 nM; at human TLR8 (setting [2]), 23.5 nM.

As to `Cc1cc(-c2[nH]c3ccc(C4CCN(C(=O)CC(F)(F)F)CC4)cc3c2C(C)C)ccn1` [Example 600, 3,3,3-trifluoro-1-(4-(3-isopropyl-2-(2-methylpyridin-4-yl)-1H-indol-5-yl)piperidin-1-yl)propan-1-one], the IC50 is 120 nM on human TLR7, more than 50000 nM on human TLR9 (setting [1]) and 269 nM at human TLR8 (setting [2]).

With `Cc1cc(-c2[nH]c3ccc(C4CCN(C(=O)C5CC(=O)N(C)C5)CC4)cc3c2C(C)C)c(F)cn1` (stereo not drawn) [Example 583, 4-(4-(2-(5-fluoro-2-methylpyridin-4-yl)-3-isopropyl-1H-indol-5-yl)piperidine-1-carbonyl)-1-methylpyrrolidin-2-one], the IC50 on human TLR7 is 15.6 nM; at human TLR9 (setting [1]), more than 50000 nM; on human TLR8 (setting [2]), 36.8 nM.
